We go through 122 molecules from a melting point compilation (Tetko et al.).

In general, melting point refers to the temperature of the solid-liquid transition. Regarding `O=S(=O)(c1c[nH]c2ncccc12)N1CCNCC1`, the melting point was in the range of 207 to 209 °C.

`O=c1[nH]c2cc(F)c(F)cc2[nH]1` came in with a melting point of 332 to 334 °C.

In the case of `COc1ccccc1C(N)=S`, the melting point is 113 to 115 °C.

Consider `CCCC(C(=O)O)c1ccccc1` (configuration not stated), for which the melting point is 63 to 67 °C.

In turn, `Cc1cc(C(=O)N2CCCC2)ccc1N` registered a melting point of 124 to 126 °C.

`COc1ccc(Cl)cc1CCl` came in with a melting point of 44 to 46 °C.

The molecule `COC(=O)c1cc(OC)c(OC(F)F)cc1[N+](=O)[O-]` displayed a melting point of 96 to 98 °C.

As to `N#Cc1ccc(N2CCOCC2)nc1`, the melting point fell in the range of 123 to 125 °C.

Consider `O=C(O)CN1C(=O)C2CC=CCC2C1=O` (configuration not stated), for which the melting point was in the range of 83 to 85 °C.

In turn, `O=C(O)c1ccc(=O)n(Cc2ccccc2)n1` registered a melting point of 192 to 195 °C.

Regarding `Nc1ccc(N2CCN(C(=O)C3CC3)CC2)cn1`, the melting point lay in the range of 153 to 155 °C.

Molecule `CC(=O)Nc1ccc(O)c(C(=O)O)c1` had a melting point of 221 to 223 °C.

`CC(C)(C)OC(=O)c1cccc(C(=O)O)c1` showed a melting point of 147 to 149 °C.

Take `Cc1ccccc1C(=O)CC#N`: the melting point fell in the range of 84 to 86 °C.

For `Sc1ccc2ccccc2n1`, the melting point lay within 173 to 176 °C.

The molecule `NC(=S)c1cc2ccccc2o1` yielded a melting point of 146 to 148 °C.

The molecule `O=C(CCl)N1CCc2[nH]c3ccccc3c2C1` displayed a melting point of 188 to 190 °C.

With `CC(NC(=O)OC(C)(C)C)C(O)Cc1ccccc1` (configuration not stated), the melting point lay in the range of 116 to 118 °C.

The molecule `CC(NC(=O)CC1CCCCC1)C(=O)O` (configuration not stated) gave a melting point of 156 to 158 °C.

Take `O=C(O)CCCNc1ccc(C(F)(F)F)cn1`: the melting point fell in the range of 91 to 93 °C.

In the case of `NC(=S)c1ccccc1O`, the melting point fell in the range of 118 to 120 °C.

The molecule `CCOC(=O)c1ccn(-c2ccccc2N)n1` gave a melting point of 79 to 81 °C.

Take `CC(NC(=O)CCl)c1cccs1` (configuration not stated): the melting point was 92 to 94 °C.

In turn, `COC(=O)Cc1cc(=O)[nH]c(S)n1` registered a melting point of 185 to 187 °C.

The molecule `Cc1ccc2c(c1)NC(=O)C(C)O2` (configuration not stated) gave a melting point of 146 to 148 °C.

Turning to `N#Cc1cc(C(=O)O)c(N)[nH]c1=O`, the melting point was 250 to 252 °C.

In the case of `O=C(O)CCCS(=O)(=O)N1CCCC1`, the melting point fell in the range of 130 to 132 °C.

Molecule `Cc1cc(C(=O)O)ccc1S(=O)(=O)Cl` gave a melting point of 197 to 199 °C.

Turning to `C=CCN(c1ccc(OC)cc1)S(=O)(=O)c1ccc(Cl)c(C(=O)O)c1`, the melting point was 109 to 111 °C.

Regarding `NCC(=O)Nc1ccccc1-n1cncn1`, the melting point was 118 to 120 °C.

Take `CC(=O)OC(OC(C)=O)c1ccc(S(=O)(=O)Cl)cc1`: the melting point lay within 109 to 111 °C.

The molecule `O=C1CCCSc2ccc(Cl)cc21` displayed a melting point of 49 to 51 °C.

On to `O=[N+]([O-])c1ccc(-c2ncon2)cc1`, for which the melting point was 166 to 168 °C.

For the molecule `CC(c1ccc(F)cc1F)S(N)(=O)=O` (configuration not stated), the melting point was in the range of 93 to 95 °C.

In turn, `Cc1c(C(=O)O)cnn1C1CCOCC1` came in with a melting point of 207 to 209 °C.

`O=S(=O)(O)c1nc2ccccc2[nH]1` yielded a melting point of 116 to 119 °C.

Consider `COC(=O)c1cc2c(OC(F)F)cccc2[nH]1`, for which the melting point fell in the range of 144 to 146 °C.

`CC(C(=O)O)c1cccc(F)c1` (configuration not stated): the melting point lay within 59 to 61 °C.

`O=C1CC(C(=O)O)CN1` (configuration not stated) gave a melting point of 129 to 131 °C.

For the molecule `O=C1NC(=O)C2(CCCc3sccc32)N1` (configuration not stated), the melting point was in the range of 267 to 269 °C.

`O=C(CCl)NCc1cccc(C(=O)NC2CC2)c1`: the melting point lay in the range of 137 to 139 °C.

For the molecule `COc1ccc(Cn2[nH]cc(Br)c2=N)cc1`, the melting point lay within 92 to 94 °C.

In turn, `CCOC(O)=C1Nc2ccccc2C1=O` had a melting point of 92 to 94 °C.

`O=C(NC1CC1)c1ccc(Cl)c([N+](=O)[O-])c1` displayed a melting point of 130 to 132 °C.

Molecule `CC1CNc2ccccc2S1` (configuration not stated) came in with a melting point of 41 to 43 °C.

Molecule `CN1CCN(C(=O)C2CCc3ccccc3N2)CC1` (configuration not stated) yielded a melting point of 113 to 115 °C.

In turn, `Nc1cccc(-c2ccc(=O)[nH]n2)c1` showed a melting point of 206 to 208 °C.

Molecule `O=S(=O)(Cl)c1ccc(OCC(F)(F)F)nc1` showed a melting point of 55 to 57 °C.

`O=C(O)C1CCN(c2ccc(F)cc2)C1=O` (configuration not stated) registered a melting point of 145 to 147 °C.

`CC(C)(C(=O)O)c1ccc(Cl)c(Cl)c1` returned a melting point of 94 to 96 °C.

`CCCCn1c(SCC(=O)O)nc2cc(C(F)(F)F)ccc21` returned a melting point of 120 to 122 °C.

Regarding `Cc1ccc(C(=O)O)cc1N1C(=O)C2CC=CCC2C1=O` (configuration not stated), the melting point lay within 221 to 223 °C.

Take `Cc1cccc2c(CC(=O)O)c[nH]c12`: the melting point lay in the range of 188 to 190 °C.

In turn, `ON=Cc1csnn1` displayed a melting point of 136 to 138 °C.

Regarding `NC(COc1ccc(Cl)cc1Cl)=NO`, the melting point was in the range of 141 to 144 °C.

Regarding `O=C(O)CNc1ccc(C(F)(F)F)cn1`, the melting point lay in the range of 134 to 136 °C.

Molecule `CN(C)Cc1ccnc(N)c1` showed a melting point of 58 to 60 °C.

In the case of `Cc1cc([N+](=O)[O-])ccc1NC(=O)CCCl`, the melting point fell in the range of 147 to 149 °C.

As for `O=C(O)CCc1nc2ccccc2o1`, the melting point is 110 to 112 °C.

`O=C(O)C1CSC2(c3ccc(F)cc3)CCC(=O)N12` (configuration not stated) displayed a melting point of 202 to 204 °C.

The molecule `Nc1ccnc(Cc2ccccc2)n1` returned a melting point of 143 to 145 °C.

Molecule `Cc1cccc(S(N)(=O)=O)n1` returned a melting point of 165 to 167 °C.

In turn, `O=C(CCl)N1CCN(S(=O)(=O)c2c(F)cccc2F)CC1` came in with a melting point of 119 to 121 °C.

`Nc1ccnn1Cc1ccc(F)cc1` gave a melting point of 59 to 61 °C.

`NS(=O)(=O)c1cccc2cccnc12`: the melting point fell in the range of 183 to 185 °C.

In the case of `NCCNc1ccc(-c2ccccc2)nn1`, the melting point was in the range of 113 to 115 °C.

As to `COC(=O)c1cc(F)c(F)cc1N`, the melting point lay in the range of 79 to 81 °C.

For the molecule `Cc1[nH]nc(C(=O)O)c1[N+](=O)[O-]`, the melting point lay within 183 to 185 °C.

`Nc1c(F)cc(Cl)cc1F`: the melting point was 44 to 46 °C.

With `Nc1nnc(-c2cccc(Br)c2)s1`, the melting point fell in the range of 216 to 218 °C.

`O=C(O)c1cccnc1SCc1ccc(Br)cc1`: the melting point lay within 236 to 238 °C.

Molecule `O=C(O)Cc1ccco1` gave a melting point of 64 to 69 °C.

Molecule `CC(NC(=O)CCl)c1ccc2c(c1)CCCC2` (configuration not stated) returned a melting point of 134 to 136 °C.

Take `NC(=O)c1c(N)sc2c1CCC2`: the melting point fell in the range of 158 to 160 °C.

As to `COC(=O)c1ccc2c(c1)S(=O)(=O)N=C(C)N2`, the melting point was in the range of 275 to 277 °C.

In turn, `CC(=O)Nc1cccc(NC(=O)C2CCNCC2)c1` registered a melting point of 199 to 201 °C.

In turn, `COC(=O)CCNc1ccncc1[N+](=O)[O-]` came in with a melting point of 93 to 95 °C.

Take `Fc1cc2ncc(Cl)nc2cc1F`: the melting point lay in the range of 91 to 93 °C.

For the molecule `CCC(C)n1ncc(C(=O)O)c1C1CC1` (configuration not stated), the melting point lay in the range of 116 to 118 °C.

Molecule `Cn1c(N)nnc1S` returned a melting point of 278 to 280 °C.

On to `COc1ccc(S(N)(=O)=O)c(OC)c1C(=O)O`, for which the melting point was in the range of 151 to 153 °C.

Turning to `O=C(O)CCn1cnc2ccccc21`, the melting point lay in the range of 106 to 108 °C.

`N#CCC(=O)c1ccc(C(F)(F)F)cc1` gave a melting point of 48 to 50 °C.

`O=C(O)/C=C/c1cn(-c2ccccc2)nc1-c1ccc(Cl)s1` showed a melting point of 200 to 202 °C.

For `Nc1c(Cl)ncnc1-n1cccn1`, the melting point is 110 to 112 °C.

Regarding `CC(Oc1ccc(Br)cc1F)C(=O)O` (configuration not stated), the melting point lay within 113 to 115 °C.

`O=C(O)c1ccc(-c2ccco2)o1` yielded a melting point of 147 to 149 °C.

For the molecule `O=C(O)c1cc2ccccc2c(=O)[nH]1`, the melting point was 318 to 320 °C.

`CCOc1ccc(S(N)(=O)=O)cn1` returned a melting point of 133 to 135 °C.

Molecule `O=C(CCl)/N=c1\sccn1Cc1ccc(Cl)cc1Cl` registered a melting point of 128 to 130 °C.

`Cc1cc(C(=O)O)c(C)n1-c1ccccc1` registered a melting point of 213 to 215 °C.

In turn, `CC1(C)CCC(CC(=O)O)c2ccccc21` (configuration not stated) had a melting point of 81 to 83 °C.

Molecule `Nc1ccc(S(=O)(=O)Nc2nncs2)cc1` showed a melting point of 211 to 213 °C.

`Cc1ccc(O)c(S(=O)(=O)N2CCNCC2)c1` came in with a melting point of 187 to 189 °C.

As for `Clc1ncncc1I`, the melting point was 54 to 56 °C.

In turn, `COCCn1c(S)nc2ccccc21` came in with a melting point of 127 to 129 °C.

With `O=C(O)CS(=O)(=O)CC(=O)Nc1ccc(Br)cc1`, the melting point lay in the range of 207 to 209 °C.

`CC(=CC(=O)O)c1cccc(Cl)c1` had a melting point of 156 to 158 °C.

Take `O=C(O)c1occc1-c1ccccc1`: the melting point fell in the range of 142 to 144 °C.

As to `O=C1CNc2ccc(Br)cc2N1`, the melting point was 169 to 171 °C.

For `CN(C)N=Cc1cnn(C)c1`, the melting point fell in the range of 70 to 72 °C.

`COC(=O)CNC(=O)c1cccc(N)c1` had a melting point of 103 to 105 °C.

Molecule `CC(=O)c1ccc(-n2c(C)c[nH]c2=O)cc1` had a melting point of 203 to 205 °C.

On to `CC(Cc1ccccc1)n1cccc1C(=O)O` (configuration not stated), for which the melting point was 78 to 80 °C.

As to `Nc1ccncc1C(=O)C(F)(F)F`, the melting point was 170 to 172 °C.

In turn, `COc1cc(C(C[N+](=O)[O-])c2c[nH]c3ccccc23)ccc1O` (configuration not stated) came in with a melting point of 115 to 117 °C.

`CNc1n[nH]c(N)c1S(C)(=O)=O` displayed a melting point of 171 to 173 °C.

For the molecule `COc1ccc2nc(C(=O)O)ccc2c1`, the melting point was in the range of 184 to 186 °C.

`CC(C)(C)OC(=O)N1CCCc2cccc(O)c21`: the melting point lay in the range of 60 to 62 °C.

With `CC(=O)c1ccc(N2CCOCC2)c(F)c1`, the melting point is 84 to 86 °C.

Take `CC(C)(C)OC(=O)NC1CC2CCCC(C1)C2N` (configuration not stated): the melting point is 110 to 112 °C.

The molecule `CC(C)C(NC(=O)c1ccccc1F)C(=O)O` (configuration not stated) had a melting point of 116 to 118 °C.

`COc1ccccc1NC(=O)CC(=O)Nc1ccccc1OC` yielded a melting point of 154 to 156 °C.

`CCC(CC)NS(=O)(=O)c1ccc(Cl)nc1`: the melting point fell in the range of 91 to 93 °C.

Turning to `CCCCNc1nc2ccc(C)cc2s1`, the melting point lay within 70 to 72 °C.

In turn, `O=C(O)c1ccc(Cl)c(N2CCNC2=O)c1` registered a melting point of 290 to 292 °C.

On to `CN1C(=O)Cc2cc(C(=O)CCl)ccc21`, for which the melting point lay in the range of 199 to 201 °C.

With `O=Cc1cnn(-c2ccccc2)n1`, the melting point lay within 66 to 68 °C.

`NNC(=O)c1ccc2ccccc2n1`: the melting point was 133 to 135 °C.

In turn, `Cc1cc(O)c(C#N)c(C)n1` displayed a melting point of 301 to 303 °C.

In turn, `O=c1[nH]c(-c2cccnc2)cs1` yielded a melting point of 225 to 227 °C.

On to `c1c[nH]c(C2CCCCN2)n1` (configuration not stated), for which the melting point is 144 to 146 °C.
